Patent US6914045B2, “Glycopeptide antibiotics” (Wyeth Holdings Corporation, priority 2001, dated 2005)
Values after ≈ are worked out from the molar mass of the structure shown.

Key:
Assay in all cases: in vitro antibacterial evaluation, MIC by broth dilution
Format in all cases: cell-based
Details in all cases: broth dilution, 18 hours at 35° C.
[1] = system: Escherichia coli
Procedure, shortened: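 Broth dilution in Muller-Hinton II medium per NCCLS standard M7-A2, with an inoculum of 5×10^5 CFU/mL and antibiotic tested over 64-0.06 μg/mL. MIC was taken as the lowest concentration inhibiting visible growth.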

[2] = system: Staphylococcus sp.
Method: (§1) Methods for in vitro Antibacterial Evaluation (Table 1)
(§2) The minimum inhibitory concentration (MIC), the lowest concentration of the antibiotic which inhibits growth of the test organism, is determined by the broth dilution method using Muller-Hinton II […] (Baltimore Biological Laboratories) following the recommendations of the National Committee for Clinical Laboratory Standards [Methods for dilution antimicrobial susceptibility tests for bacteria that grow aerobically, approved standard M7-A2, National Committee for Clinical Laboratory Standards, Villanova, Pa.].
(§3) An inoculum level of 5×10^5 CFU/mL, and a range of antibiotic concentrations (64-0.06 μg/mL) is used. […] The test organisms include a spectrum of Gram-positive bacteria comprised of Staphylococcus sp., Streptococcus sp. and Enterococcus sp. These organisms include recent clinical isolates that are resistant to methicillin, penicillin and/or vancomycin.

[3] = system: Streptococcus sp.
Method: as §1, §2, §3

[4] = system: Enterococcus sp.
Method: as §1, §2, §3

SMILES: CC(c1ccccc1)C1NC(=O)CNC(=O)C(CO)NC(=O)C(C(O)C2CNC(=N)N2C2OC(CO)C(O)C(O)C2O)NC(=O)C(C(O)C2CNC(=N)N2)NC(=O)C(Cc2ccc3oc(-c4cccc([N+](=O)[O-])c4)nc3c2)NC1=O (stereo not drawn) [Example 26, Cyclo[3-[2-(3-nitrophenyl)-1,3-benzoxazol-5-yl)alanyl-3-(2-iminoimidazolidin-4-yl)seryl-3-(3-hexopyranosyl-2-iminoimidazolidin-4-yl)serylserylglycyl-β-methylphenylalanyl]]
- MIC Escherichia coli (ATCC 25922) ([1]; strain ATCC 25922): 64 µg/mL (≈ 57.3 µM)
- MIC Escherichia coli (GC 4559) ([1]; strain GC 4559): 64 µg/mL (≈ 57.3 µM)
- MIC Escherichia coli (GC 4560) ([1]; strain GC 4560): 16 µg/mL (≈ 14.3 µM)
- MIC Staphylococcus aureus (ATCC 29213) ([2]; strain ATCC 29213): 32 µg/mL (≈ 28.6 µM)
- MIC Staphylococcus aureus (GC 1131) ([2]; strain GC 1131): 16 µg/mL (≈ 14.3 µM)
- MIC Staphylococcus aureus (GC 3051) ([2]; strain GC 3051): 16 µg/mL (≈ 14.3 µM)
- MIC Staphylococcus aureus (GC 3053) ([2]; strain GC 3053): 16 µg/mL (≈ 14.3 µM)
- MIC Staphylococcus aureus (GC 4541) ([2]; strain GC 4541): 32 µg/mL (≈ 28.6 µM)
- MIC Staphylococcus aureus (GC 4542) ([2]; strain GC 4542): 16 µg/mL (≈ 14.3 µM)
- MIC Staphylococcus aureus-SMITH (GC 4543) ([2]; strain GC 4543): 16 µg/mL (≈ 14.3 µM)
- MIC Staphylococcus aureus (GC 4544) ([2]; strain GC 4544): 16 µg/mL (≈ 14.3 µM)
- MIC Staphylococcus aureus (GC 4545) ([2]; strain GC 4545): 32 µg/mL (≈ 28.6 µM)
- MIC Staphylococcus haemolyticus (GC 4546) ([2]; strain GC 4546): 4 µg/mL (≈ 3.58 µM)
- MIC Coagulase Negative Staphylococcus (GC 4547) ([2]; strain GC 4547): 8 µg/mL (≈ 7.16 µM)
- MIC Coagulase Negative Staphylococcus (GC 4548) ([2]; strain GC 4548): 16 µg/mL (≈ 14.3 µM)
- MIC Coagulase Negative Staphylococcus (GC 4549) ([2]; strain GC 4549): 4 µg/mL (≈ 3.58 µM)
- MIC Coagulase Negative Staphylococcus (GC 4551) ([2]; strain GC 4551): 16 µg/mL (≈ 14.3 µM)
- MIC Coagulase Negative Staphylococcus (GC 6257) ([2]; strain GC 6257): 4 µg/mL (≈ 3.58 µM)
- MIC Streptococcus pneumoniae (ATCC 6301) ([3]; strain ATCC 6301): 32 µg/mL (≈ 28.6 µM)
- MIC Streptococcus pneumoniae (GC 1894) ([3]; strain GC 1894): 16 µg/mL (≈ 14.3 µM)
- MIC Streptococcus pyogenes (GC 4563) ([3]; strain GC 4563): 8 µg/mL (≈ 7.16 µM)
- MIC Streptococcus agalactiae (GC 4564) ([3]; strain GC 4564): 16 µg/mL (≈ 14.3 µM)
- MIC Streptococcus pneumoniae (GC 4565) ([3]; strain GC 4565): 32 µg/mL (≈ 28.6 µM)
- MIC Enterococcus faecalis (ATCC 29212) ([4]; strain ATCC 29212): 32 µg/mL (≈ 28.6 µM)
- MIC Enterococcus faecalis (GC 2242) ([4]; strain GC 2242): 64 µg/mL (≈ 57.3 µM)
- MIC Enterococcus faecium (GC 2243) ([4]; strain GC 2243): 32 µg/mL (≈ 28.6 µM)
- MIC Enterococcus faecalis (GC 2691) ([4]; strain GC 2691): 32 µg/mL (≈ 28.6 µM)
- MIC Enterococcus faecalis (GC 3059) ([4]; strain GC 3059): 64 µg/mL (≈ 57.3 µM)
- MIC Enterococcus faecalis (GC 4552) ([4]; strain GC 4552): 64 µg/mL (≈ 57.3 µM)
- MIC Enterococcus faecalis (GC 4553) ([4]; strain GC 4553): 32 µg/mL (≈ 28.6 µM)
- MIC Enterococcus faecalis (GC 4554) ([4]; strain GC 4554): 64 µg/mL (≈ 57.3 µM)
- MIC Enterococcus faecium (GC 4556) ([4]; strain GC 4556): 64 µg/mL (≈ 57.3 µM)
- MIC Enterococcus faecium (GC 4557) ([4]; strain GC 4557): 8 µg/mL (≈ 7.16 µM)
- MIC Enterococcus avium (GC 4558) ([4]; strain GC 4558): 32 µg/mL (≈ 28.6 µM)
- MIC Enterococcus faecalis (GC 6189) ([4]; strain GC 6189): 32 µg/mL (≈ 28.6 µM)
